In patent publication US20260317320A1, “C5AR1 ANTAGONISTS AND USES THEREOF” (Vanqua Bio, Inc., priority 2022, published 2026):
Where two headings read alike, the source gives them in different places.

Key:
[1] = target: T1, complement C5a receptor 1 (C5aR1) (Homo sapiens, UniProt P21730); test: β-arrestin recruitment via C5aR1 activation in live CHO-K1 cells (PathHunter), antagonist mode; assay type: cell-based
T1 construct: β-galactosidase fragment (PathHunter enzyme complementation); host or cells: CHO-K1 (PathHunter CHO-K1 C5aR1 β-arrestin cell line)
T1 sequence (P21730 1-350): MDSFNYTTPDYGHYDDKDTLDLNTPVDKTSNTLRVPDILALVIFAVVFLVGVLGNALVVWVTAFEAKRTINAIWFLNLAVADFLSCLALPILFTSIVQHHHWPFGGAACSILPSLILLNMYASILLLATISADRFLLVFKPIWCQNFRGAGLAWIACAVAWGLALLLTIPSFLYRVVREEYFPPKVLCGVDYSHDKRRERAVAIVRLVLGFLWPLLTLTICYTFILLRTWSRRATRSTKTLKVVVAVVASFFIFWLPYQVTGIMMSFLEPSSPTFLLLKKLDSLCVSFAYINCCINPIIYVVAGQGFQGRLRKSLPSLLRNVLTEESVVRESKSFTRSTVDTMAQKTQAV
How it was run: (§1)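 β-arrestin recruitment to C5aR1 in CHO-K1 cells is detected by enzyme-fragment complementation. Antagonism is measured against recombinant hC5a at its EC90; agonism is measured with compound alone. Potencies are grouped into IC50 categories.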

[2] = target: T1, complement C5a receptor 1 (C5aR1); test: β-arrestin recruitment via C5aR1 activation in live CHO-K1 cells (PathHunter), agonist mode; assay type: cell-based
How it was run: as §1

[3] = antagonist mode, recombinant hC5a (EC90) as competing natural agonist, live CHO-K1 cells, read-out: [Antagonist] B-arrestin2 recruitment: Average IC50

| SMILES | IC50 [1, 3] [µM] | [Agonist] B-arrestin2 recruitment: Average EC50 (nM) [2] | IC50 [1] [µM] |
| --- | --- | --- | --- |
| O=c1c(C2CCN(c3cccnc3C(F)(F)F)CC2)cc2nccnc2n1Cc1ccccc1F [compound 18, 5-(2-Fluorobenzyl)-7-(1-(2-(trifluoromethyl)pyridin-3-yl)piperidin-4-yl)pyrido[2,3-b]pyrazin-6(5H)-one] | > 100 | Non-Active | – |
| Cc1cccc(F)c1N1CCC(c2cc3nccnc3n(Cc3nccnc3C)c2=O)CC1 [compound 20, 7-(1-(2-Fluoro-6-methylphenyl)piperidin-4-yl)-5-((3-methylpyrazin-2-yl)methyl)pyrido[2,3-b]pyrazin-6(5H)-one] | 0.5 to 5 | Non-Active | – |
| Cc1cccc(F)c1N1CCC(c2cc3nccnc3n(Cc3ncccc3C(F)(F)F)c2=O)CC1 [compound 21, 7-(1-(2-Fluoro-6-methylphenyl)piperidin-4-yl)-5-((3-(trifluoromethyl)pyridin-2-yl)methyl)pyrido[2,3-b]pyrazin-6(5H)-one] | < 0.5 | Non-Active | – |
| Cc1cccc(F)c1N1CCC(c2c(C)c3nccnc3n(Cc3nccnc3C(F)(F)F)c2=O)CC1 [compound 22, 7-(1-(2-Fluoro-6-methylphenyl)piperidin-4-yl)-8-methyl-5-((3-(trifluoromethyl)pyrazin-2-yl)methyl)pyrido[2,3-b]pyrazin-6(5H)-one] | 0.5 to 5 | Non-Active | – |
| Cc1cccc(F)c1N1CCC(c2cc3nccnc3n(Cc3nccnc3C(F)(F)F)c2=O)C1 (stereo not shown) [compound 23, 7-(1-(2-Fluoro-6-methylphenyl)pyrrolidin-3-yl)-5-((3-(trifluoromethyl)pyrazin-2-yl)methyl) pyrido[2,3-b]pyrazin-6(5H)-one] | 0.5 to 5 | Non-Active | – |
| Cc1cccc(F)c1N1CCN(c2cc3nccnc3n(Cc3nccnc3C(F)(F)F)c2=O)CC1 [compound 24, 7-(4-(2-Fluoro-6-methylphenyl)piperazin-1-yl)-5-((3-(trifluoromethyl)pyrazin-2-yl)methyl)pyrido[2,3-b]pyrazin-6(5H)-one] | 0.5 to 5 | Non-Active | – |
| Cc1cnc2cc(C3CCN(c4c(C)cccc4F)CC3)c(=O)n(Cc3nccnc3C(F)(F)F)c2n1 [compound 25, 7-(1-(2-Fluoro-6-methylphenyl)piperidin-4-yl)-3-methyl-5-((3-(trifluoromethyl)pyrazin-2-yl)methyl)pyrido[2,3-b]pyrazin-6(5H)-one] | < 0.5 | Non-Active | – |
| Cc1cnc(F)cc1N1CCC(c2cc3nccnc3n(Cc3ccccc3C(F)(F)F)c2=O)CC1 [compound 26, 7-(1-(2-fluoro-5-methylpyridin-4-yl)piperidin-4-yl)-5-(2-(trifluoromethyl)benzyl)pyrido-[2,3-b]pyrazin-6(5H)-one] | 0.5 to 5 | Non-Active | – |
| Cc1cccc(F)c1N1CCC(c2cc3nccnc3n(Cc3cnc(C(F)(F)F)cn3)c2=O)CC1 [compound 27, 7-(1-(2-Fluoro-6-methylphenyl)piperidin-4-yl)-5-((5-(trifluoromethyl)pyrazin-2-yl)methyl)pyrido[2,3-b]pyrazin-6(5H)-one] | – | Non-Active | > 100 |
| Cc1cccc(F)c1N1CCC(c2cc3cncnc3n(Cc3nccnc3C(F)(F)F)c2=O)CC1 [compound 28, 6-(1-(2-fluoro-6-methylphenyl)piperidin-4-yl)-8-((3-(trifluoromethyl)pyrazin-2-yl)methyl)pyrido[2,3-d]pyrimidin-7(8H)-one] | 5 to 100 | Non-Active | – |
| Cc1c(N2CCC(c3cc4nccnc4n(Cc4ccccc4C(F)(F)F)c3=O)CC2)ccnc1F [compound 29, 7-(1-(2-Fluoro-3-methylpyridin-4-yl)piperidin-4-yl)-5-(2-(trifluoromethyl)benzyl)pyrido-[2,3-b]pyrazin-6(5H)-one] | 5 to 100 | Non-Active | – |
